Measurements taken from US7976863B2, “Biomedical devices with antimicrobial coatings” (priority 2002, dated 2011).
Ends that are not written are not given here.

Tests used:
Type in all cases: cell-based
sheep red blood cells = assay: Lysis of sheep red blood cells; conditions: 37° C. for 4 h, various concentrations
Description: FIG. 1 is a graph showing the % lysis sheep red blood cells relative to water for various peptides.
(§1) For in vitro cytotoxic testing, solutions of L-Melimine were prepared in PBS (500 μg/ml, 250 μg/ml, 125 μg/ml and 62.5 μg/ml). Solutions were then diluted 1:3 in tissue culture media (EMEM) and added to murine L929 cells for 48 hours. Cells are rinsed in saline then harvested using 0.25% trypsin for 3-5 minutes at ambient temperature. 1 ml of saline is then added to cells and trypsin mixture, a 500 μl aliquot is added to 19.5 ml of saline and counted in a coulter counter in triplicate. Results are compared to unperturbed cultures as well as positive (cyotoxic) controls. Results are expressed as percentage of non-viable cells (100-number of cells in sample/number of cells in unperturbed cells×100). In addition, the ability of the peptides to lyze sheep red blood cells was examined. The sheep red blood cells were washed and resuspended in PBS. Peptides at various concentrations were added to the red blood cells and incubated at 37° C. for 4 h. 100% lysis was obtained using distilled water and 0% lysis was obtained using PBS. Lysis was measured by measuring the amount of haemoglobin released into the PBS after centrifugation to remove whole red blood cells.

S. aureus 31 [1] = assay: MIC in solution (tube/microtitre turbidity); conditions: MIC, peptide in solution, 18 hours at 35° C.
Description: (§2) To assess the effect of cationic proteins/peptides in solution against bacterial cells, Psudomonas aeruginosa 6294 and Staphylacoccus aureus 31 cells were grown as for 18 hours in Tryptone Soya Broth (TSB) at 35° C. The cells were then harvested by centrifugation and washed twice in phosphate buffered saline (PBS; NaCl 8 g/l; KCl 0.2 g/l; Na2HPO4 1.15 g/l; KH2PO4 0.2 g/l). The cells were then re-suspended to OD 0.1 at 660 nm in PBS. The cationic peptide was serially diluted from 1 mg/ml and dilutions were added to wells in a 96 well microtitre plate or into 5 ml disposable test-tubes. Controls were bacteria without peptides. Bacteria were incubated for 18 hours at 35° C. and turbidity was measured at 660 nm. A lack of turbidity in the test-tube corresponding to the peptide dilution was considered to be the minimum inhibitory concentration (“MIC”).

P. aeruginosa 6294 [2] = conditions: for minimum concentration required to inhibit bacterial growth, P.a 6284: MIC, peptide in solution, 18 hours at 35° C.
Description: as §2

S. aureus 31 [3] = assay: Viable counts of bacteria adhered to peptide-adsorbed Etafilcon A lenses; conditions: 500 μg/lens adsorbed on Etafilcon lens, vs uncoated control lens
Description: (§3) For conducting viable counts, Etafilcon A lenses were removed from the manufacturers vials, washed three times in 1 ml PBS, dried and then coated by pipetting 500 μg L-Melimine onto the contact lenses (melimine was dissolved in […] and air dried onto contact lenses) overnight at ambient temperature in a fume hood. Lenses were rehydrated in PBS for 10 minutes and 0.5 ml of 1×10^8 bacterial cells/ml, including gram-positive S. aureus and gram-negative P. aeruginosa were added to the lenses. After incubation at ambient temperature for either 10 min or 5 hours, the lenses were washed three times in PBS to remove non-adherent or loosely adherent bacteria. Lenses were then homogenized using tissue homogenizer and 1 ml PBS until lens disintegration (about 1-2 minutes). Serial dilutions were then made according to the technique of Miles and Misra and aliquots (20 μL) plated out on nutrient agar. After incubation overnight at 37° C., viable bacteria were determined and results expressed as colony forming units/mm^2 after calculation of the surface area of the lens (approximately 310 mm^2). The effects are calculated based upon comparison to adhesion control lens that was not coated with cationic protein/peptide before bacterial adhesion testing.
(§4) Etafilcon lenses, commercially available from Johnson & Johnson as ACUVUE® Brand contact lenses) were soaked as in Example 2, above, except that the L-melimine concentration was varied: 125 μg, 250 μg or 500 μg/lens. After absorption of L-Melimine onto the hydrogel polymer, the lenses were rehydrated with PBS, and exposed to S. aureus or P. saeruginosa for either 10 minutes or five hours, as described in Example 2. After exposure, the polymer was evaluated for numbers of microorganisms the standard Miles and Misra plate count assay.
(§5) Stock solutions (50 mg/ml) were prepared containing the L-Protattin in distilled water. 500 μg of the stock solution was adsorbed to a contact lens made from Etafilcon A as for L-melamine in Example 2 for 18 hours at ambient temperature in a fume hood. The subsequent experimental details are as described in Example 2, above and viable bacteria was measured.
(§6) Contact lenses were coated and dried (as in Example 2) and D-Melimine applied at a concentration of either 250 μg per lens or 500 μg per lens. D-melimine was made using D-amino acids as for L-melimine using standard peptide synthesis techniques (e.g. Fmoc). Assays for measuring inhibition of bacterial adhesion were performed as in Example 2.

P. aeruginosa 6294 [4] = assay: as above; conditions: 500 μg/lens adsorbed on Etafilcon lens, vs uncoated control lens
Description: as §3, §4, §5, §6

S. aureus CK5 [5] = assay: as above; conditions: 500 μg/lens adsorbed on Etafilcon A lens, vs uncoated control lens
Description: as §3, §5

P. aeruginosa 15442 [6] = assay: as above; conditions: 500 μg/lens adsorbed on Etafilcon A lens, vs uncoated control lens
Description: as §3, §5

S. aureus CK5 [7] = assay: MIC in solution (tube/microtitre turbidity); conditions: MIC, peptide in solution, 18 hours at 35° C.
P. aeruginosa 15442 [8] = assay: MIC in solution (tube/microtitre turbidity); conditions: MIC, peptide in solution, 18 hours at 35° C.
S. aureus = test system: S. aureus
Description: as §2
(§7) L-Melimine was evaluated to determine its potential to induce resistance in P. aeruginosa and S. aureus. Prior to L-Melimine exposure, MICs of both strains were determined as in Example 1. […] Bacteria were grown overnight in TSB. Bacteria were inoculated 1:100 into fresh TSB containing sub-inhibitory levels of L-Melimine and incubated overnight. Bacteria from the broth containing sub-inhibitory levels (column 2, Table 9) were then re-incubated in fresh TSB with the same concentration of L-Melimine. This was repeated for 30 consecutive days. After passaging, a MIC for the bacteria from the last passage was determined. Any increase in MIC would indicate a potential for bacteria to become resistant.

P. aeruginosa = test system: P. aeruginosa
Description: as §2, §7

murine L929 cells = assay: In vitro cytotoxic testing; conditions: for % cell inhibition: 48 hours
Description: as §1

S. aureus 31 [9] = assay: Heat stability study: inhibition of growth in solution after autoclaving; conditions: 1000 μg/ml in PBS mixed with equal volume of bacteria
Description: (§8) A heat stability study was conducted to evaluate whether post-exposure of the L-Melimine to autoclaving would alter the ability of the peptide to prevent bacterial growth.
(§9) Bacteria (P. aeruginosa 6294 and S. aureus 31) were grown for 18 hours at 35° C. in TSB, then washed twice in PBS. The bacteria were resuspended in PBS to an optical density of 0.1 at 660 nm. L-Melimine was dissolved in PBS to a concentration of 1000 μg/ml and autoclaved at 121° C. for 15 minutes. Equal volumes of bacterial suspension and L-Melimine were then added together and incubated at 35° C. for periods of up to 72 hours. Controls were non-autoclaved L-Melimine. After 24, 48 and 72 hours, aliquots of the bacteria/L-Melimine solutions were removed and the number of viable bacteria were counted using the standard Miles and Misra plate count assay.

P. aeruginosa 6294 [10] = assay: as above; conditions: 1000 μg/ml in PBS mixed with equal volume of bacteria
Description: as §8, §9

[11] = Autoclaved at 121° C. for 15 minutes
[12] = Treatment None (non-autoclaved)

Compound: CC[C@H](C)[C@H](NC(=O)CN)C(=O)NCC(=O)N[C@@H](C)C(=O)N[C@H](C(=O)N[C@@H](CC(C)C)C(=O)N[C@@H](CCCCN)C(=O)N[C@H](C(=O)N[C@@H](CC(C)C)C(=O)N[C@H](C(=O)N[C@H](C(=O)NCC(=O)N[C@@H](CC(C)C)C(=O)N1CCC[C@H]1C(=O)N[C@@H](C)C(=O)N[C@@H](CC(C)C)C(=O)N[C@H](C(=O)N[C@@H](CO)C(=O)N[C@@H](Cc1c[nH]c2ccccc12)C(=O)N[C@H](C(=O)N[C@@H](CCCCN)C(=O)N[C@@H](CCCNC(=N)N)C(=O)N[C@@H](CCCCN)C(=O)N[C@@H](CCCNC(=N)N)C(=O)N[C@@H](CCC(N)=O)C(=O)N[C@@H](CCC(N)=O)C(N)=O)[C@@H](C)CC)[C@@H](C)CC)[C@@H](C)O)[C@@H](C)O)C(C)C)C(C)C [Mellitin]
- hemolysis of red blood cells (FIG. 1, % lysis relative to water) (sheep red blood cells): extensive hemolysis
- minimum concentration required to inhibit bacterial growth, S.a. 31 (S. aureus 31 [1]): 15 µg/mL
- minimum concentration required to inhibit bacterial growth, P.a 6284 (P. aeruginosa 6294 [2]): R (R = resistant, highest concentration of peptide = 1000 ug/Ml)

Compound: PRRRRSSSRPVRRRRRPRVSRRRRRRGGRRRR [Protamine, full-length protamine comparison]
- minimum concentration required to inhibit bacterial growth, S.a. 31 (S. aureus 31 [1]): R (R = resistant, highest concentration of peptide = 1000 ug/Ml)
- minimum concentration required to inhibit bacterial growth, P.a 6284 (P. aeruginosa 6294 [2]): R (R = resistant, highest concentration of peptide = 1000 ug/Ml)

Compound: RPRVSRRRRRRGGRRRRTLISWIKNKRKQ (RPRVSRRRRRRGGRRRRTLISWIKNKRKQ) [Prottatin]
- % reduction at 10 min (S. aureus 31 [3]): 64 ± 18 (6) %
- % reduction at 5 hrs (S. aureus 31 [3]): 43 ± 33 (6) %
- % reduction at 10 min (P. aeruginosa 6294 [4]): 97 ± 5 (6) %
- % reduction at 5 hrs (P. aeruginosa 6294 [4]): 57 ± 39 (6) %
- % reduction at 10 min (S. aureus CK5 [5]): 6 ± 62 (7) %
- % reduction at 5 hrs (S. aureus CK5 [5]): 3 ± 25 (7) %
- % reduction at 10 min (P. aeruginosa 15442 [6]): 94 ± 4 (8) %
- % reduction at 5 hrs (P. aeruginosa 15442 [6]): 63 ± 32 (7) %
- minimum concentration required to inhibit bacterial growth, S.a. CK5 (S. aureus CK5 [7]): 500 µg/mL
- minimum concentration required to inhibit bacterial growth, P.a 15442 (P. aeruginosa 15442 [8]): 1000 µg/mL
- minimum concentration required to inhibit bacterial growth, S.a. 31 (S. aureus 31 [1]): 1000 µg/mL
- minimum concentration required to inhibit bacterial growth, P.a 6284 (P. aeruginosa 6294 [2]): 500 µg/mL

Compound: RPRVSRRRRRRGGRRRR [Protamine (1-17), 1-17 segment of protamine, segment B]
- minimum concentration required to inhibit bacterial growth, S.a. CK5 (S. aureus CK5 [7]): 1000 µg/mL
- minimum concentration required to inhibit bacterial growth, P.a 15442 (P. aeruginosa 15442 [8]): R (R = resistant, highest concentration of peptide = 1000 ug/Ml)
- minimum concentration required to inhibit bacterial growth, S.a. 31 (S. aureus 31 [1]): R (R = resistant, highest concentration of peptide = 1000 ug/Ml)
- minimum concentration required to inhibit bacterial growth, P.a 6284 (P. aeruginosa 6294 [2]): R (R = resistant, highest concentration of peptide = 1000 ug/Ml)

Compound: TLISWIKNKRKQ [Mellitin (15-26), 15-26 segment of mellitin, segment A]
- minimum concentration required to inhibit bacterial growth, S.a. CK5 (S. aureus CK5 [7]): R (R = resistant, highest concentration of peptide = 1000 ug/Ml)
- minimum concentration required to inhibit bacterial growth, P.a 15442 (P. aeruginosa 15442 [8]): R (R = resistant, highest concentration of peptide = 1000 ug/Ml)
- minimum concentration required to inhibit bacterial growth, S.a. 31 (S. aureus 31 [1]): R (R = resistant, highest concentration of peptide = 1000 ug/Ml)
- minimum concentration required to inhibit bacterial growth, P.a 6284 (P. aeruginosa 6294 [2]): R (R = resistant, highest concentration of peptide = 1000 ug/Ml)

Compound: TLISWIKNKRKQRPRVSRRRRRRGGRRRR [Melimine, TLISWIKNKRKQRPRVSRRRRRRGGRRRR]
- MIC post-passage (S. aureus; after 30 consecutive days passage at 30 μg/ml): 63 µg/mL
- MIC prior to passage (S. aureus; procedure of Example 1): 125 µg/mL
- MIC post-passage (P. aeruginosa; after 30 consecutive days passage): 4000 µg/mL
- MIC prior to passage (P. aeruginosa; starting concentration raised to 15 mg/ml, procedure of Example 1): 4000 µg/mL
- hemolysis of red blood cells (FIG. 1, % lysis relative to water) (sheep red blood cells): least amount of hemolysis of any peptide/protein
- % cell inhibition (murine L929 cells; 62.5 μg/ml solution in PBS diluted 1:3 in EMEM): 20%
- % cell inhibition (murine L929 cells; 125 μg/ml solution in PBS diluted 1:3 in EMEM): 8%
- % cell inhibition (murine L929 cells; 250 μg/ml solution in PBS diluted 1:3 in EMEM): 26%
- % cell inhibition (murine L929 cells; 500 μg/ml solution in PBS diluted 1:3 in EMEM): 44%
- cytotoxicity (in words) (murine L929 cells; at 500 μg/ml): marginally cytotoxic
- cytotoxicity (in words) (murine L929 cells; at all other concentrations (250, 125, 62.5 μg/ml)): non-cytotoxic
- % inhibition of growth @ 24 hours (S. aureus 31 [9]; [11]): 100 (3) %
- % inhibition of growth @ 48 hours (S. aureus 31 [9]; [11]): 100 (3) %
- % inhibition of growth @ 72 hours (S. aureus 31 [9]; [11]): 99 (2) %
- % inhibition of growth @ 24 hours (S. aureus 31 [9]; [12]): 100 (5) %
- % inhibition of growth @ 48 hours (S. aureus 31 [9]; [12]): 100 (3) %
- % inhibition of growth @ 72 hours (S. aureus 31 [9]; [12]): 99 (2) %
- % inhibition of growth @ 24 hours (P. aeruginosa 6294 [10]; [11]): 100 (3) %
- % inhibition of growth @ 48 hours (P. aeruginosa 6294 [10]; [11]): 100 (3) %
- % inhibition of growth @ 72 hours (P. aeruginosa 6294 [10]; [11]): 100 (2) %
- % inhibition of growth @ 24 hours (P. aeruginosa 6294 [10]; [12]): 100 (5) %
- % inhibition of growth @ 48 hours (P. aeruginosa 6294 [10]; [12]): 100 (3) %
- % inhibition of growth @ 72 hours (P. aeruginosa 6294 [10]; [12]): 100 (2) %
- MIC, P. aeruginosa resistant up to (P. aeruginosa 6294 [2]; text summary of Table 1, highest concentration used): > 1000 µg/mL
